Assay type in all cases: functional
For one test, the system named is Escherichia coli. Briefly: In vitro antibacterial activity against Escherichia coli 1850.
For a further test, the system named is Enterococcus faecalis. Briefly: In vitro antibacterial activity against […] faecalis 850E.
Test [1] relates to Staphylococcus aureus. Briefly: In vitro antibacterial activity against Staphylococcus aureus 1131.
For another test, the system named is Pseudomonas aeruginosa. Briefly: In vitro antibacterial activity against Pseudomonas aeruginosa 1911.
The subject of the next test is Clostridium perfringens. Briefly: In vitro antibacterial activity against Clostridium perfringens 615.
Test [2] relates to Staphylococcus aureus. Briefly: In vitro antibacterial activity against Staphylococcus aureus 853.
Test [3] concerns Staphylococcus aureus. Briefly: In vitro antibacterial activity against Staphylococcus aureus 663.

With `C[C@@H](O)[C@H]1C(=O)N2C(C(=O)[O-])=C3CCC[C@H]3[C@H]12.[Na+]`, the MIC against Escherichia coli was 2 µg/mL; in the test with Enterococcus faecalis, 16 µg/mL; in the test with Staphylococcus aureus [1], 8 µg/mL; in the test with Pseudomonas aeruginosa, > 32 µg/mL; in the test with Clostridium perfringens, 1 µg/mL; against Staphylococcus aureus [2], 0.5 µg/mL. This compound displayed an MIC with Staphylococcus aureus [3] of 1 µg/mL.
Consider `CO[C@H]1CC[C@H]2C1=C(C(=O)[O-])N1C(=O)[C@H]([C@@H](C)O)[C@@H]21.[Na+]`, for which the MIC against Escherichia coli is 0.5 µg/mL; in the test with Enterococcus faecalis, 2 µg/mL; against Staphylococcus aureus [1] it was 8 µg/mL; against Pseudomonas aeruginosa it was 32 µg/mL; in the test on Clostridium perfringens it was 0.12 µg/mL; in the test with Staphylococcus aureus [2], 0.5 µg/mL. Also, in the test with Staphylococcus aureus [3], the MIC turned out to be 0.25 µg/mL.
Turning to `C[C@@H](O)[C@H]1C(=O)N2C(C(=O)O)=C(SCCNC=N)C[C@H]12.O` [IMIPENEM], the MIC against Escherichia coli turned out to be 0.5 µg/mL; in the test on Enterococcus faecalis, 2 µg/mL; in the test with Staphylococcus aureus [1] it was 4 µg/mL; in the test with Pseudomonas aeruginosa, 4 µg/mL; with Clostridium perfringens, 0.03 µg/mL; in the test on Staphylococcus aureus [2], 0.12 µg/mL. Inhibition of growth against Staphylococcus aureus [3] (MIC) required 0.06 µg/mL.

In general, MIC refers to the least concentration at which growth counts as inhibited.

These data come from ChEMBL document CHEMBL1128984, “Synthesis and biological activity of novel tricyclic -lactams” (1996).
